# Source: patent US10166294B2, “Multifunctional forms of polyoxazoline copolymers and drug compositions comprising the same” (priority 2008, dated 2019)
# Where “and” joins values, the source holds several entries; their conditions need not be identical. Identical values can stand only once. Like-named read-outs stand apart in the source and are kept apart here.
# Columns and labels:
# [1] = test system: platinum resistant ovarian cancer cells (A2780/DDPt); details: for Days to 3 Times Tumor Weight: median; for T − C (tumor growth delay): median time to 3 times original size, drug group minus control; for Persistence of tumor growth delay profiles: FIGS. 2A and 2B, dotted lines
# Method: Female athymic (Ncr:Nu) mice were implanted subcutaneously with A2780/DDPt tumor fragments and the tumors were allowed to reach a weight range of 163 to 189 mg. […] One group of animals was treated with cisplatin at a dose of 8 mg/kg. The control group received normal saline. The animals were weighed and the tumors measured twice weekly after administration of the first drug injection.
# [2] = test system: human colorectal cancer cells (HT-29); details: for Tumor Regression Complete / Tumor Regression Partial: n=10 mice; for Tumor Regression Complete: complete: unpalpable; for Tumor Regression Partial: partial: <50% of size on day 1; for T − C (tumor growth delay): median time to 2 times original size, drug group minus control; for Days to 2 Times Tumor Weight: median
# Method: (§1) Female athymic (Ncr:Nu) mice were implanted subcutaneously with HT-29 tumor fragments and the tumors were allowed to reach a weight range of 162 to 188 mg. […] The control group received normal saline. The animals were weighed and the tumors measured twice weekly after administration of the first drug injection.
# [3] = test system: oropharyngeal carcinoma cancer cells (KB)
# Method: as §1, with “KB” for “HT-29”, “160” for “162”, “190” for “188”
# [4] = 40 mg/kg i.v. every fourth day x3
# [5] = 60 mg/kg i.v. every fourth day x3
# [6] = 90 mg/kg i.v. every fourth day x3
# [7] = 40, 60 or 90 mg/kg i.v. every fourth day x3
# [8] = all doses (40, 60, 90 mg/kg i.v.)
# [9] = any of the doses (40, 60, 90 mg/kg)
compound,measurement,setting,value
N.N.[Cl][Pt][Cl] [Cisplatin],Days to 3 Times Tumor Weight,[1]; 8 mg/kg,8.9 days
same,T − C (tumor growth delay),[1]; 8 mg/kg,0.5 days
CCc1c2c(nc3ccc(OC(=O)N4CCC(N5CCCCC5)CC4)cc13)-c1cc3c(c(=O)n1C2)COC(=O)[C@]3(O)CC [Irinotecan],Tumor Regression Complete,[2]; [4],0
same,Tumor Regression Partial,[2]; [4],0
same,T − C (tumor growth delay),[2]; 40 mg/kg,8.8 days
same,Days to 2 Times Tumor Weight,[2]; [5],21.4 days
same,Tumor Regression Complete,[2]; [5],0
same,Tumor Regression Partial,[2]; [5],0
same,Tumor Regression Complete,[2]; [6],0
same,Tumor Regression Partial,[2]; [6],0
same,Decrease in tumor growth compared to the control group,"[2]; 40, 60, 90 mg/kg groups",did not show a statistically significant decrease
same,Maximum loss in body weight,[2]; [7],8%
same,Tolerability,[2]; [8],well tolerated
same,Tumor regression,[2]; [9],not observed
same,Days to 3 Times Tumor Weight,[1]; [4],13.0 days
same,T − C (tumor growth delay),[1]; 40 mg/kg,4.6 days
same,Days to 3 Times Tumor Weight,[1]; [5],16.4 days
same,T − C (tumor growth delay),[1]; 60 mg/kg,8.0 days
same,Days to 3 Times Tumor Weight,[1]; [6],18.6 days
same,T − C (tumor growth delay),[1]; 90 mg/kg,10.2 days
same,Decrease in tumor growth compared to the control group,"[1]; 40, 60, 90 mg/kg groups",did not show a statistically significant decrease
same,Maximum loss in body weight,[1]; [7],2%
same,Persistence of tumor growth delay profiles,[1],14 days
same,Tolerability,[1]; [8],well tolerated
same,Tolerability,[3]; [8],well tolerated
same,Tumor regression,[3]; [9],not observed
same,Maximum loss in body weight,"[3]; mouse, in vivo",2%
H-(Irino.HCl)10(EOZ)190-T-Folate [Folate-POZ-irinotecan],"Complete tumor regression, share of mice","[3]; mouse, in vivo",70% and 50%
same,"Complete tumor regression, share of treated mice","[3]; mouse, in vivo",> 50%
same,Tumor growth delay (T-C value) compared to irinotecan,"[3]; mouse, in vivo",significantly higher
H-(Irino.HCl)10(EOZ)200-T-PA [POZ-irinotecan],Days to 2 Times Tumor Weight,[2]; [4],31.4 days
same,Tumor Regression Complete,[2]; [4],0
same,T − C (tumor growth delay),[2]; 40 mg/kg,23.4 days
same,Median Duration of Regression,[2]; [5],18 days
same,Days to 2 Times Tumor Weight,[2]; [5],>60.0 days
same,Tumor Regression Complete,[2]; [5],1
same,T − C (tumor growth delay),[2]; 60 mg/kg,>52 days
same,Median Duration of Regression,[2]; [6],25 days
same,Days to 2 Times Tumor Weight,[2]; [6],>60.0 days
same,Tumor Regression Complete,[2]; [6],7
same,T − C (tumor growth delay),[2]; 90 mg/kg,>52 days
same,Tumor growth delay (T-C value) compared to irinotecan,"[2]; all 3 doses tested, p<0.001",significantly higher
same,Days to 3 Times Tumor Weight,[1]; [4],12.7 days
same,T − C (tumor growth delay),[1]; 40 mg/kg,4.3 days
same,Days to 3 Times Tumor Weight,[1]; [5],20.3 days
same,T − C (tumor growth delay),[1]; 60 mg/kg,11.9 days
same,Tumor growth delay (T-C value) compared to irinotecan,"[1]; 90 mg/kg dose, p<0.001",significantly higher
same,Days to 3 Times Tumor Weight,[1]; [6],36.3 days
same,T − C (tumor growth delay),[1]; 90 mg/kg,27.9 days
same,Persistence of tumor growth delay profiles,[1],at least 32 days
